The values below come from US4198415A, “Prolactin inhibiting octahydro pyrazolo[3,4-g]quinolines” (Eli Lilly and Company, priority 1979, dated 1980).

One series has as its system prolactin. In words: inhibition of prolactin secretion in reserpine-treated male rats (serum prolactin). The series is classed as in vivo, rat (Sprague-Dawley). The conditions noted are these: intraperitoneal, one hour after treatment, reserpine-pretreated rats. On the procedure: Adult male rats of the Sprague-Dawley strain weighing about 200 g. were housed in an air-conditioned room with controlled lighting (lights on 6 a.m.-8 p.m.) and fed lab chow and water ad libitum. Each rat received an intraperitoneal injection of 2.0 mg. of reserpine in aqueous suspension 18 hours before administration of the test drug. The purpose of the reserpine was to keep prolactin levels uniformly elevated. The compounds under test were dissolved in 10 percent ethanol, and were injected intraperitoneally at doses of 50 mcg/kg and 0.5 and 5 mg/kg. Each compound was administered at each dose level to a group of 10 rats, and a control group of 10 intact males received an equivalent amount of 10 percent ethanol. One hour after treatment, all rats were killed by decapitation, and 150 μl aliquots of serum were assayed for prolactin.

The test system of series [1] is 6-hydroxydopamine-lesioned rats. In words: turning behavior in 6-hydroxydopamine-lesioned rats (rat turning test, Parkinsonism). The conditions noted are these: intraperitoneal; for Average Number of Turns/rat: first 15 minutes after end of latency period. The series is classed as in vivo. On the procedure:
In this test, nigroneostriatal-lesioned rats are employed, as prepared by the procedure of Ungerstedt and Arbuthnott, Brain Res, 24, 485 (1970). A compound having dopamine agonist activity causes the rats to turn in circles contralateral to the side of the lesion. After a latency period, which varies from compound to compound, the number of turns is counted over a 15-minute period.
The compounds were dissolved in water and the aqueous solution injected into the rat by the intraperitoneal route at dose levels of 1 mg/kg. and 100 mcg/kg.

Series [2] is described as follows: intraperitoneal lethality (LD50). The class given is in vivo. The protocol:
In using the compounds of this invention to inhibit prolactin secretion or to treat Parkinson's syndrome or for other pharmacologic action, a compound according to Formula Ia or Ib above in which R is C1 -C3 alkyl or allyl and R^1 is H or CH2 X where X is OCH3, SCH3, SO2 CH3, CN or CONH2, or a salt thereof with a pharmaceutically-acceptable acid, is administered to a subject suffering from Parkinsonism or in need of having his or her prolactin level reduced in an amount effective to treat Parkinsonism or to reduce prolactin. Oral administration is preferred. If parenteral administration is used, the injection is preferably by the subcutaneous route using an appropriate pharmaceutical formulation. […] In particular, with intravenous or intramuscular administration, a water soluble pharmaceutically-acceptable salt is employed. For oral administration, the compound either as the free base or in the form of a salt thereof, can also be mixed with standard pharmaceutical excipients and loaded into empty telescoping gelatin capsules or pressed into tablets. The oral dosage range is from about 0.01 to 10 mg./kg. of mammalian weight and the parenteral dose range from about 0.0025 to 2.5 mg./kg.

Counter-ions that a name gives are not always drawn.

Turning to `CCCN1CC(CSC)CC2Cc3n[nH]cc3CC21` (mixture of isomers) [trans-dl-5-n-Propyl-7-methylmercaptomethyl-4,4a,5,6,7,8,8a,9-octahydro-1H and 2H-pyrazolo[3,4-g]quinoline], the “Percent Prolactin Inhibition” value in the series on prolactin (0.5 mg/kg) is on record as 48%; in the series on prolactin (5 mg/kg), 73%.

Turning to `CCCN1CC(CSC)CC2Cc3n[nH]cc3CC21` (mixture of isomers) [trans-dl-5-n-Propyl-7-methylmercaptomethyl-4,4a,5,6,7,8,8a,9-octahydro-1H and 2H-pyrazolo[3,4-g]quinoline dihydrochloride], the “% of Rats Exhibiting Turning Behavior” value in series [1] (1 mg./kg.) is recorded as 100%; in series [1] (100 mcg./kg.), 50%. Also, the “Average Number of Turns/rat” value in series [1] (1 mg./kg.) is 81 turns/rat; in series [1] (100 mcg./kg.), 67 turns/rat.

On to `CCCN1CCC[C@H]2Cc3[nH]ncc3C[C@@H]21` (relative stereo) [trans-dl-5-n-propyl-4,4a,5,6,7,8,8a,9-octahydro-1H and 2H-pyrazolo[3,4-g]quinoline dihydrochloride], for which the median lethal dose (LD50) in series [2] (in vivo, ip, intraperitoneal) lay in the range of 100 to 300 mg/kg. In addition, the results for the deaths entry in series [2] (intraperitoneal dosages of 300 mg./kg.) and in series [2] (intraperitoneal dosages of 10-100 mg./kg.) were “fatal” and “no deaths”, respectively.

As for `C=CCN1CCC[C@H]2Cc3n[nH]cc3C[C@@H]21` (relative stereo) [Trans-dl-5-allyl-4,4a,5,6,7,8,8a,9-octahydro-2-H(and 1H)-pyrazolo[3,4-g]quinoline dihydrochloride], in series [1] (1 mg./kg.), the “% of Rats Exhibiting Turning Behavior” value is reported as 100% and the “Average Number of Turns/rat” value came out at 165 turns/rat. In series [1] (100 mcg./kg.), the “% of Rats Exhibiting Turning Behavior” value is 0% and the “Average Number of Turns/rat” value is reported as 0 turns/rat.

Turning to `CN1CCC[C@H]2Cc3n[nH]cc3C[C@@H]21` (relative stereo) [trans-dl-5-methyl-4,4a,5,6,7,8,8a,9-octahydro-1H-(and 2H)-pyrazolo[3,4-g]quinoline dihydrochlorides], the “Percent Prolactin Inhibition” value in the series with prolactin (0.5 mg/kg) came out at 42%; in the series with prolactin (5 mg/kg) it was 84%.
